In patent US11447465B2, “Pharmaceutical compounds for treatment of medical disorders” (Achillion Pharmaceuticals, Inc., priority 2017, dated 2022) one finds IC50 data, which are given here for 16 compounds.

Where two headings read alike, the source gives them in different places.

This experiment addresses Human Factor D (Homo sapiens (Human), UniProt P00746). The experiment can be described thus: Human Factor D Assay. The class given is biochemical. The note with it: read-out: IC5 (Stars). As for the experimental part: Human Factor D (purified from human serum, Complement Technology, Inc.) at 80 nM final concentration is incubated with test compound at various concentrations for 5 min at room temperature in 50 mM Tris, 1M NaCl, pH 7.5. A synthetic substrate Z-L-Lys-SBzl and DTNB (Ellman's reagent) are added to final concentrations of 100 μM each. Absorbance at 405 nm (A405) is recorded at 30 second intervals for 30 min using a microplate spectrophotometer. IC50 values are calculated by nonlinear regression of Complement Factor D reaction rates as a function of test compound concentration.

[1] abbreviates: Table 6, Human Factor D 80 nM, substrate Z-L-Lys-SBzl.

Chain of Human Factor D (P00746 26-253): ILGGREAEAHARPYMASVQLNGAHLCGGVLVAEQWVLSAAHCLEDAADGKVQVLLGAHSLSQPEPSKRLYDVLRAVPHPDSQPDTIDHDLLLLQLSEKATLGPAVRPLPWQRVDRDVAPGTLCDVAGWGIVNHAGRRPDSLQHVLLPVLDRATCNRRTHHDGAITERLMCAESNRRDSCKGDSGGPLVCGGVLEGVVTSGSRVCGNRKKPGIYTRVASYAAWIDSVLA

On to `CC(=O)c1nn(CC(=O)N2C(C(=O)Nc3nc(Br)ccc3C)C[C@]3(C)C[C@H]23)c2ccc(OCCS(=O)(=O)CC3(C)COC3)cc12` (stereo partly drawn) [Compound T-56, (1S,5S)-2-(2-(3-acetyl-5-(2-(((3-methyloxetan-3-yl)methyl)sulfonyl)ethoxy)-1H-indazol-1-yl)acetyl)-N-(6-bromo-3-methylpyridin-2-yl)-5-methyl-2-azabicyclo[3.1.0]hexane-3-carboxamide], for which the IC50 under setting [1] lay in the range of 1000 to 10000 nM.
In the case of `CC(=O)c1nn(CC(=O)N2C[C@H](F)C[C@H]2C(=O)Nc2cccc(Br)n2)c2ccc(O[C@@H]3CO[C@H]4[C@@H]3OC[C@H]4OC(=O)[C@@H](N)C(C)C)cc12` [Compound T-57, (3R,3aR,6R,6aR)-6-((3-acetyl-1-(2-((2S,4R)-2-((6-bromopyridin-2-yl)carbamoyl)-4-fluoropyrrolidin-1-yl)-2-oxoethyl)-1H-indazol-5-yl)oxy)hexahydrofuro[3,2-b]furan-3-yl L-valinate], under setting [1], the IC50 was less than 1000 nM.
For `CC(=O)c1nn(CC(=O)N2C[C@H](F)C[C@H]2C(=O)Nc2nc(Br)ccc2C)c2ccc(O[C@@H]3CO[C@H]4[C@@H]3OC[C@H]4OC(=O)[C@@H](N)C(C)C)cc12` [Compound T-58, (3R,3aR,6R,6aR)-6-((3-acetyl-1-(2-((2S,4R)-2-((6-bromo-3-methylpyridin-2-yl)carbamoyl)-4-fluoropyrrolidin-1-yl)-2-oxoethyl)-lH-indazol-5-yl)oxy)hexahydrofuro[3,2-b]furan-3-yl L-valinate], under setting [1], the IC50 was less than 1000 nM.
The same measure, in the same setting: the same measure for `CC(=O)c1nn(CC(=O)N2[C@H](C(=O)Nc3nc(Br)ccc3C)C[C@@]3(C)C[C@@H]23)c2ccc(OCCS(=O)(=O)CC3(C)COC3)cc12` [Compound T-59, (1R,5R)-2-(2-(3-acetyl-5-(2-(((3-methyloxetan-3-yl)methyl)sulfonyl)ethoxy)-1H-indazol-1-yl)acetyl)-N-(6-bromo-3-methylpyridin-2-yl)-5-methyl-2-azabicyclo[3.1.0]hexane-3-carboxamide]: less than 1000 nM; for `CS(=N)(=O)COc1ccc2c(C(N)=O)nn(CC(=O)N3C[C@H](F)C[C@H]3C(=O)Nc3cccc(-c4ccccc4Cl)c3F)c2c1` (stereo partly drawn) [Compound T-60, 1-(2-((2S,4R)-2-((2′-chloro-2-fluoro-[1,1′-biphenyl]-3-yl)carbamoyl)-4-fluoropyrrolidin-1-yl)-2-oxoethyl)-6-((S-methylsulfonimidoyl)methoxy)-1H-indazole-3-carboxamide]: less than 1000 nM.
Same read-out and setting: the same measure for `C/S(COc1ccc2c(C(N)=O)nn(CC(=O)N3C[C@H](F)C[C@H]3C(=O)Nc3cccc(-c4ccccc4Cl)c3F)c2c1)=N\C#N` (stereo partly shown) [Compound T-61]: less than 1000 nM.
The same measure, in the same setting: the result for `CS(=O)(COc1ccc2c(C(N)=O)nn(CC(=O)N3C[C@H](F)C[C@H]3C(=O)Nc3cccc(-c4ccccc4Cl)c3F)c2c1)=NC#N` (stereo partly shown) [Compound T-62] reads less than 1000 nM.
`CC(=O)O[C@@H]1CO[C@H]2[C@@H]1OC[C@H]2Oc1ccc2c(c1)c(C(C)=O)nn2CC(=O)N1C[C@H](F)C[C@H]1C(=O)Nc1cccc(Br)n1` [Compound T-63, (3R,3aR,6R,6aR)-6-((3-acetyl-1-(2-((2S,4R)-2-((6-bromopyridin-2-yl)carbamoyl)-4-fluoropyrrolidin-1-yl)-2-oxoethyl)-1H-indazol-5-yl)oxy)hexa-hydrofuro[3,2-b]furan-3-yl acetate]: the IC50 under setting [1] was less than 1000 nM.
Regarding `Cc1ccc(Br)nc1NC(=O)[C@@H]1C[C@@]2(C)C[C@H]2N1C(=O)Cn1nc(C(N)=O)c2cc(NC(=O)C3CCCC3(F)F)ccc21` (stereo partly drawn) [Compound T-65, 1-(2-((1R,3S,5R)-3-((6-bromo-3-methylpyridin-2-yl)carbamoyl)-5-methyl-2-azabicyclo[3.1.0]hexan-2-yl)-2-oxoethyl)-5-(2,2-difluorocyclopentane-1-carboxamido)-1H-indazole-3-carboxamide], the IC50 (Table 7) was less than 1000 nM.
On the same count and under the same terms, the same measure for `CC(=O)c1nn(CC(=O)N2[C@H](C(=O)Nc3nc(Br)ccc3C)C[C@@]3(C)C[C@@H]23)c2c(C)cc(NC(=O)C3CCCC3(F)F)cc12` (stereo partly drawn) [Compound T-66, (1R,3S,5R)-2-(2-(3-acetyl-5-(2,2-difluorocyclopentane-1-carboxamido)-7-methyl-1H-indazol-1-yl)acetyl)-N-(6-bromo-3-methylpyridin-2-yl)-5-methyl-2-azabicyclo[3.1.0]hexane-3-carboxamide]: less than 1000 nM; for `CC(=O)c1nn(CC(=O)N2[C@H](C(=O)NCc3cccc(Cl)c3F)C[C@@]3(C)C[C@@H]23)c2c(C)cc(NC(=O)N3CCCC(F)(F)C3)cc12` [Compound T-67, (1R,3S,5R)-2-(2-(3-acetyl-5-(3,3-difluoropiperidine-1-carboxamido)-7-methyl-1H-indazol-1-yl)acetyl)-N-(3-chloro-2-fluorobenzyl)-5-methyl-2-azabicyclo[3.l.0]hexane-3-carboxamide]: less than 1000 nM; for `CC(=O)c1nn(CC(=O)N2[C@H](C(=O)NCc3cccc(Cl)c3F)C[C@@]3(CNC(=O)COCCOCCNC(=O)COCCOCCNC(=O)CC[C@H](NC(=O)CCCCCCCCCCCCCCCCC(=O)O)C(=O)O)C[C@@H]23)c2c(C)cc(NC(=O)N3CCCC(F)(F)C3)cc12` [Compound T-68, (S)-1-((1R,3S,5R)-2-(2-(3-acetyl-5-(3,3-difluoropiperidine-1-carboxamido)-7-methyl-1H-indazol-1-yl)acetyl)-3-((3-chloro-2-fluorobenzyl)carbamoyl)-2-azabicyclo[3.1.0]hexan-5-yl)-24-carboxy-3,12,21,26-tetraoxo-5,8,14,17-tetraoxa-2,11,20,25-tetraazatritetracontan-43-oic acid]: less than 1000 nM.
Turning to `Cc1ccc(Br)nc1NC(=O)[C@@H]1C[C@@]2(CNC(=O)COCCOCCNC(=O)COCCOCCNC(=O)CC[C@H](NC(=O)CCCCCCCCCCCCCCCCC(=O)O)C(=O)O)C[C@H]2N1C(=O)Cn1nc(C(N)=O)c2cc(Nc3cccnc3)ccc21` [Compound T-71, (S)-1-((1R,3S,5R)-3-((6-bromo-3-methylpyridin-2-yl)carbamoyl)-2-(2-(3-carbamoyl-5-(pyridin-3-ylamino)-1H-indazol-1-yl)acetyl)-2-azabicyclo[3.1.0]hexan-5-yl)-24-carboxy-3,12,21,26-tetraoxo-5,8,14,17-tetraoxa-2,11,20,25-tetraazatritetracontan-43-oic acid], the IC50 (Table 7) is less than 1000 nM.
Same read-out and setting: the result for `CCOP(=O)(CC)COc1ccc2c(C(C)=O)nn(CC(=O)N3C[C@H](F)C[C@H]3C(=O)Nc3nc(Br)ccc3C)c2c1` (stereo partly drawn) [Compound T-77, ethyl (((3-acetyl-1-(2-((2S,4R)-2-((6-bromo-3-methylpyridin-2-yl)carbamoyl)-4-fluoropyrrolidin-1-yl)-2-oxoethyl)-1H-indazol-6-yl)oxy)methyl)(ethyl)phosphinate] reads less than 1000 nM; that for `CCOP(=O)(COc1ccc2c(C(C)=O)nn(CC(=O)N3C[C@H](F)C[C@H]3C(=O)Nc3nc(Br)ccc3C)c2c1)OCC` [Compound T-78, diethyl (((3-acetyl-1-(2-((2S,4R)-2-((6-bromo-3-methylpyridin-2-yl)carbamoyl)-4-fluoropyrrolidin-1-yl)-2-oxoethyl)-1H-indazol-6-yl)oxy)methyl)phosphonate], less than 1000 nM.
On the same count and under the same terms, the same measure for `CCP(=O)(O)COc1ccc2c(C(C)=O)nn(CC(=O)N3C[C@H](F)C[C@H]3C(=O)Nc3nc(Br)ccc3C)c2c1` [Compound T-79, (((3-acetyl-1-(2-((2S,4R)-2-((6-bromo-3-methylpyridin-2-yl)carbamoyl)-4-fluoropyrrolidin-1-yl)-2-oxoethyl)-1H-indazol-6-yl)oxy)methyl)(ethyl)phosphinic acid]: less than 1000 nM.
